The record followed here is US11400080B2, “Use of sirolimus to treat exudative age-related macular degeneration with persistent edema” (Santen Pharmaceutical Co., Ltd., priority 2016, dated 2022).

For experiment [1], the system named is exudative AMD with persistent intraretinal or subretinal edema despite previous intravitreal anti-VEGF treatment. As to the kind of experiment: Example 1: randomized, subject-masked trial of intravitreal sirolimus versus anti-VEGF (OCT CST and BCVA). The format is in vivo, human. To be noted: baseline to months 3-6, subjects who completed the study through month 6, FIG. 2 and FIG. 4. The source says: This study was a single-center, randomized, subject-masked trial over the course of six months with eight scheduled visits. Study Population. Thirty human patients, who were 50 years of age or older at baseline were recruited according to the following inclusion and exclusion criteria. If both eyes met all of the inclusion/exclusion criteria the eye with the worse BCVA at baseline was selected as the study eye. If both eyes met all of the inclusion/exclusion criteria and BCVA values were identical for both eyes, the right eye was selected as the study eye. Study Treatment (Group 1). […] Sham intravitreal injection given at month 1, month 3 and month 5. […] Intravitreal injection of anti-VEGF per patient/investigator choice (pegaptanib, aflibercept, bevacizumab or ranibizumab) given at baseline and thereafter monthly per clinical criteria. Sham intravitreal injections given when retreatment criterion was not met at month 1 or any later visit. […] Both intraocular pressure and the perfusion of the optic nerve head were monitored and managed appropriately after injection. […] The primary efficacy endpoint includes change in edema from baseline to month 6 as measured by CST on Heidelberg OCT. change in BCVA from baseline to month 6; Continuous variables will be summarized with means and standard deviations and medians with min and max values and categorical variables with frequencies and percentages. […]

Experiment [2] deals with persistent edema due to neovascular AMD. The experiment is described as follows: Example 2: randomized, subject-masked trial of intravitreal sirolimus plus anti-VEGF (aflibercept) versus anti-VEGF alone (OCT CST and BCVA). The format is in vivo, human. An excerpt: This study was a single-center, randomized, subject-masked trial over the course of […] with eleven scheduled visits. Study Population. Twenty human patients, who were 50 years of age or older at baseline were recruited according to the following inclusion and exclusion criteria. If both eyes met all of the inclusion/exclusion criteria the eye with the best potential for visual improvement (worse BCVA) at baseline was selected as the study eye. If both eyes met all of the inclusion/exclusion criteria and BCVA values were identical for both eyes, the right eye was selected as the study eye. Study Treatment (Group 1). […] Intravitreal injections of EYL (aflibercept) given at weeks 1, 8, 16, 24 and 32. […] Comparator Treatment (Group 2). Intravitreal injection of EYL (aflibercept) given at baseline and weeks 8, 16, 24 and 32. […] Both intraocular pressure and the perfusion of the optic nerve head were monitored and managed appropriately after injection. […] Retreatment Criteria: Subjects in both groups received retreatment (or sham) at each scheduled visit as long as continued subretinal edema, intraretinal edema or active choroidal neovascularization was present. change in edema from baseline to week 36 as measured by CST on Heidelberg OCT. change in BCVA from baseline to week 36; and number of injections required to control choroidal neovascularization based on volume of subretinal fluid.

As for `CO[C@H]1C[C@@H]2CC[C@@H](C)[C@@](O)(O2)C(=O)C(=O)N2CCCC[C@H]2C(=O)O[C@H]([C@H](C)C[C@@H]2CC[C@@H](O)[C@H](OC)C2)CC(=O)[C@H](C)/C=C(\C)[C@@H](O)[C@@H](OC)C(=O)[C@H](C)C[C@H](C)/C=C/C=C/C=C/1C` [sirolimus], the “average change in edema from baseline (central subfield thickness, CST, by OCT)” value in experiment [1] is reported as −30 to −40. Further, in experiment [2] (combination group, ten patients, EYL injections deferred (sham)), the “subjects in whom the need for anti-VEGF treatment to control edema was reduced” value came to 40%.

As for aflibercept [EYL], in experiment [2] (change from baseline, FIG. 5), the “improvement in visual acuity (BCVA)” value is on record as “+0.8 letters”.
